{"source": "patent US9734282B2", "about": "“Biological dataset profiling of cardiovascular disease and cardiovascular inflammation” (DISCOVERX CORPORATION, priority 2005, dated 2017)", "key": {"[1]": {"system": "Peripheral Blood Mononuclear Cells + Endothelial Cells", "test": "BioMAP SAg system (PBMC + endothelial cells, TCR), cell-based ELISA", "design": "species or system human", "conditions": "for CD69 level / E-selectin level / IL-8 level: protein level drug-treated versus buffer control, 24 h", "procedure": "(§1) Human umbilical vein endothelial cells (HUVEC) were cultured according to standard methods, and plated into microtiter plates. Peripheral blood mononuclear cells (PBMC) were prepared from buffy coats from normal human donors according to standard methods. Experiments were performed by culturing HUVEC in microtiter plates in the presence of cytokines (IL-1b, 1 ng/ml; TNF-a, 5 ng/ml; and IFN-g, 100 ng/ml, or IL-4, 5 ng/ml and histamine, […]), activators (SAg, 20 ng/ml or LPS, 0.2 ng/ml), and/or PBMC (7.5×10^4 cells/well) for 24 h. Compounds were tested at the indicated concentrations. Compounds were prepared in the solvent as directed, added 1 hr before stimulation of the cells, and were present during the whole 24 hr stimulation period.\n(§2) The levels of readout parameters (proteins) were measured by cell-based ELISA. Briefly, microtiter plates are treated, blocked, and then incubated with primary antibodies or isotype control antibodies (0.01-0.5 mg/ml) for 1 hr. After washing, plates were incubated with a peroxidase-conjugated anti-mouse IgG secondary antibody or a biotin-conjugated anti-mouse IgG antibody for 1 hr followed by streptavidin-HRP for 30 min. Plates were washed and developed with TMB substrate and the absorbance (OD) was read at 450 nm (subtracting the background absorbance at 650 nm). Other readout parameters include: total protein levels (SRB assay), measuring the viability of peripheral blood mononuclear cells (incorporation of propidium iodide); and microscopic visualization. SRB was performed by staining cells with 0.1% sulforhodamine B after fixation with 10% TCA, and reading wells at 560 nm. PBMC viability was assessed by adding propidium iodide (10 mg/ml) to PBMC that had been cultured for 24 hours in the presence of activators and measuring the percentage of cells that incorporated dye by flow cytometry after 10 minutes.\n(§3) For data analysis, mean OD values (or other measurements) for each parameter were calculated from triplicate samples per experiment. The mean value obtained for each parameter in a treated sample was then divided by the mean value from an appropriate control to generate a ratio. All ratios were then log 10 transformed. An average or “trusted” profile was created by averaging 2 repeats of the experiment for each compound and concentration combination. 99% prediction envelopes (grey shading in Figures) were calculated for historical controls."}, "[2]": {"system": "HUVEC and HUVEC + PBMC systems", "test": "4 system BioMAP activity profile (3C, 4H, LPS, SAg)", "assay_type": "cell-based, human", "conditions": "data not shown", "procedure": "as §1, §2\nFor data analysis, mean OD values (or other measurements) for each parameter were calculated from triplicate samples per experiment. […] 99% prediction envelopes (grey shading in Figures) were calculated for historical controls."}, "[3]": {"system": "Primary Human Endothelial Cells (HUVEC)", "test": "BioMAP 4H system (endothelial cells + IL-4 + histamine), cell-based ELISA", "conditions": "protein level drug-treated versus buffer control, 24 h", "procedure": "as §1, §2, §3"}, "[4]": {"system": "Primary Human Endothelial Cells (HUVEC)", "test": "BioMAP 3C system (endothelial cells + IL-1β + TNF-α + IFN-γ), cell-based ELISA", "conditions": "for uPAR level: protein level drug-treated versus buffer control, 24 h", "procedure": "Human umbilical vein endothelial cells (HUVEC) were cultured according to standard methods, and plated into microtiter plates. Peripheral blood mononuclear cells (PBMC) were prepared from buffy coats from normal human donors according to standard methods. Experiments were performed by culturing HUVEC in microtiter plates in the presence of cytokines (IL-1b, 1 ng/ml; TNF-a, 5 ng/ml; and IFN-g, 100 ng/ml, or IL-4, 5 ng/ml and histamine, […]), activators (SAg, 20 ng/ml or LPS, 0.2 ng/ml), and/or PBMC (7.5×10^4 cells/well) for 24 h. Compounds were tested at the indicated concentrations. Compounds were prepared in the solvent as directed, added 1 hr before stimulation of the cells, and were present during the whole 24 hr stimulation period. The levels of readout parameters (proteins) were measured by cell-based ELISA. Briefly, microtiter plates are treated, blocked, and then incubated with primary antibodies or isotype control antibodies (0.01-0.5 mg/ml) for 1 hr. After washing, plates were incubated with a peroxidase-conjugated anti-mouse IgG secondary antibody or a biotin-conjugated anti-mouse IgG antibody for 1 hr followed by streptavidin-HRP for 30 min. Plates were washed and developed with TMB substrate and the absorbance (OD) was read at 450 nm (subtracting the background absorbance at 650 nm). Other readout parameters include: total protein levels (SRB assay), measuring the viability of peripheral blood mononuclear cells (incorporation of propidium iodide); and microscopic visualization. SRB was performed by staining cells with 0.1% sulforhodamine B after fixation with 10% TCA, and reading wells at 560 nm. PBMC viability was assessed by adding propidium iodide (10 mg/ml) to PBMC that had been cultured for 24 hours in the presence of activators and measuring the percentage of cells that incorporated dye by flow cytometry after 10 minutes. For data analysis, mean OD values (or other measurements) for each parameter were calculated from triplicate samples per experiment. […] 99% prediction envelopes (grey shading in Figures) were calculated for historical controls."}, "[5]": {"system": "Peripheral Blood Mononuclear Cells + Endothelial Cells", "test": "BioMAP LPS system (PBMC + endothelial cells, TLR4), cell-based ELISA", "design": "species or system human", "procedure": "Human umbilical vein endothelial cells (HUVEC) were cultured according to standard methods, and plated into microtiter plates. Peripheral blood mononuclear cells (PBMC) were prepared from buffy coats from normal human donors according to standard methods. Experiments were performed by culturing HUVEC in microtiter plates in the presence of cytokines (IL-1b, 1 ng/ml; TNF-a, 5 ng/ml; and IFN-g, 100 ng/ml, or IL-4, 5 ng/ml and histamine, […]), activators (SAg, 20 ng/ml or LPS, 0.2 ng/ml), and/or PBMC (7.5×10^4 cells/well) for 24 h. Compounds were tested at the indicated concentrations. Compounds were prepared in the solvent as directed, added 1 hr before stimulation of the cells, and were present during the whole 24 hr stimulation period. The levels of readout parameters (proteins) were measured by cell-based ELISA. Briefly, microtiter plates are treated, blocked, and then incubated with primary antibodies or isotype control antibodies (0.01-0.5 mg/ml) for 1 hr. After washing, plates were incubated with a peroxidase-conjugated anti-mouse IgG secondary antibody or a biotin-conjugated anti-mouse IgG antibody for 1 hr followed by streptavidin-HRP for 30 min. Plates were washed and developed with TMB substrate and the absorbance (OD) was read at 450 nm (subtracting the background absorbance at 650 nm). Other readout parameters include: total protein levels (SRB assay), measuring the viability of peripheral blood mononuclear cells (incorporation of propidium iodide); and microscopic visualization. SRB was performed by staining cells with 0.1% sulforhodamine B after fixation with 10% TCA, and reading wells at 560 nm. PBMC viability was assessed by adding propidium iodide (10 mg/ml) to PBMC that had been cultured for 24 hours in the presence of activators and measuring the percentage of cells that incorporated dye by flow cytometry after 10 minutes. For data analysis, mean OD values (or other measurements) for each parameter were calculated from triplicate samples per experiment. The mean value obtained for each parameter in a treated sample was then divided by the mean value from an appropriate control to generate a ratio. All ratios were then log 10 transformed. An average or “trusted” profile was created by averaging 2 repeats of the experiment for each compound and concentration combination. 99% prediction envelopes (grey shading in Figures) were calculated for historical controls."}, "[6]": {"system": "Primary human umbilical artery smooth muscle cells (UASMC)", "test": "BioMAP SM3C system (smooth muscle cells + IL-1 + TNF-a + IFNg)", "assay_type": "cell-based", "procedure": "Primary human umbilical artery smooth muscle cells (UASMC) are used. Other cells that may replace UASMC in the screen include primary aortic, bronchial, coronary artery or pulmonary artery smooth muscle cells. Other muscle cells of interest include skeletal muscle cells and cardiomyocytes. Passage 5-7 cells are used for the screen. 4×10^4 cells/ml are cultured to 100% confluence on CellBind plates (Costar) in SmGM-2 (Clonetics) containing 5% FBS. In some cases, SmGM-2 may be removed 24 hours before screen, and replaced with serum-free SmBM basal media (Clonetics) supplemented with insulin. The following are then applied for 24 hours: Factors include a combination of IL-4 (5 ng/ml), and histamine (HIS) (10 μM) or a combination of IL-1 (1 ng/ml), TNF-a (5 ng/ml) and IFNg (20 ng/ml) (SM3C) and/or thrombin (10 units/ml) for 6 and/or 24 hours. Standard concentrations of agents are employed as described in the literature. Other factors of interest include: IL-6, LPS, endothelin-1 and angiotensin II. Based on the parameters altered by the indicated factors, BioMAPs are generated for the parameters VCAM, HLA-DR, IL-8, MCP-1, Thrombomodulin, tissue factor, LDL-receptor and uPAR. […]"}, "[7]": {"system": "heart transplant patients", "conditions": "cited from earlier work"}, "Macrophages + HUVEC": {"system": "Macrophages + HUVEC", "test": "BioMAP Mphg system (macrophages + endothelial cells + Zymosan)", "assay_type": "cell-based, human", "procedure": "Macrophages, are generated from human peripheral blood mononuclear cells. Human peripheral blood mononuclear cells are isolated from blood by Ficoll-hypaque density gradient centrifugation as described (Ponath, JEM 183:2437, 1996). Monocytes are then isolated by negative selection using the Monocyte Isolation Kit II (Miltenyi Biotec, Germany) MACS beads according to the manufacturer's instructions. Alternatively, 10×10^6 peripheral blood mononuclear cells/ml are cultured in RPMI containing 10% fetal bovine serum for 3 hours and non-adherent lymphocytes are removed by gentle washing. The following are then applied for 7 to 8 days: MCSF (50 ng/ml) alone, or MCSF+one of the following cytokines, IL-4 (20 ng/ml), IL-6 (20 ng/ml), IFN-gamma (10 ng/ml), or GM-CSF (10 ng/ml)+IL-4 (20 ng/ml). To generate foam cells, the culture media is replaced with media containing 40% autologous serum or 40% Human AB Serum male (Cambrex Bioproducts) in RPMI+MCSF 50 ng/ml for an additional 4 to 5 days. Cells are harvested and resuspended to 10^6 cells/ml and added to confluent endothelial cells. Primary human umbilical vein endothelial cells (HUVEC) are used. Other cells that may replace HUVEC in the screen include primary microvascular endothelial cells, aortic or arteriolar endothelial cells. 7.5×10^4 cells/ml are cultured to confluence in EGM-2 (Clonetics). […]"}, "[8]": {"conditions": "protein level drug-treated versus buffer control, 24 h"}}}
{"compound": "S=C([S-])OC1CC2CC1C1CCCC21.[K+]", "note": "(stereo not drawn) [D609]", "values": [{"measurement": "CD69 level", "setting": "[1]", "result": "downregulation"}, {"measurement": "E-selectin level", "setting": "[1]", "result": "upregulation"}, {"measurement": "IL-8 level", "setting": "[1]", "result": "upregulation"}]}
{"compound": "CCCCCCCCCCCCCCCCCCOCC(COP(=O)([O-])OCC[N+](C)(C)C)OC", "note": "(stereo not drawn) [ET-18-OCH3]", "values": [{"measurement": "CD69 level", "setting": "[1]", "result": "downregulation"}, {"measurement": "E-selectin level", "setting": "[1]", "result": "upregulation"}, {"measurement": "IL-8 level", "setting": "[1]", "result": "upregulation"}]}
{"compound": "CC(C)c1c(C(=O)Nc2ccccc2)c(-c2ccccc2)c(-c2ccc(F)cc2)n1CC[C@@H](O)C[C@@H](O)CC(=O)O", "note": "[atorvastatin]", "values": [{"measurement": "BioMAP profile compared with the lovastatin profile", "setting": "[2]", "result": "induce the same BioMAP profile"}, {"measurement": "Eotaxin-3 level", "setting": "[3]", "result": "increases"}, {"measurement": "MCP-1 level", "setting": "[3]", "result": "significant decreases"}, {"measurement": "uPAR level", "setting": "[4]", "result": "significant decreases"}]}
{"compound": "COCc1c(C(C)C)nc(C(C)C)c(/C=C/[C@@H](O)C[C@@H](O)CC(=O)O)c1-c1ccc(F)cc1", "note": "[cerevistatin]", "values": [{"measurement": "BioMAP profile compared with the lovastatin profile", "setting": "[2]", "result": "induce the same BioMAP profile"}]}
{"compound": "CC[C@H](C)C(=O)O[C@H]1C[C@@H](C)C=C2C=C[C@H](C)[C@H](CC[C@@H]3C[C@@H](O)CC(=O)O3)[C@H]21", "note": "[lovastatin]", "values": [{"measurement": "Eotaxin-3 level", "setting": "[3]", "result": "increases"}, {"measurement": "MCP-1 level", "setting": "[3]", "result": "significant decreases"}, {"measurement": "IL-1alpha level", "setting": "[5]; [8]", "result": "significant decreases"}, {"measurement": "M-CSF level", "setting": "[5]; [8]", "result": "increases"}, {"measurement": "tissue factor level", "setting": "[5]; [8]", "result": "increases"}, {"measurement": "uPAR level", "setting": "[4]", "result": "significant decreases"}]}
{"compound": "CC[C@H](C)C(=O)O[C@H]1CCC=C2C=C[C@H](C)[C@H](CC[C@@H]3C[C@@H](O)CC(=O)O3)[C@H]21", "note": "[mevastatin]", "values": [{"measurement": "BioMAP profile compared with the lovastatin profile", "setting": "[2]", "result": "induce the same BioMAP profile"}]}
{"compound": "COc1c(C)c2c(c(O)c1C/C=C(\\C)CCC(=O)O)C(=O)OC2", "note": "[mycophenolic acid]", "values": [{"measurement": "MCP-1 level", "setting": "[6]", "result": "inhibition"}, {"measurement": "long-term benefit against post-transplant vasculopathy", "setting": "[7]", "result": "protecting against post-transplant vasculopathy"}, {"measurement": "MCP-1 level", "setting": "Macrophages + HUVEC", "result": "inhibition"}, {"measurement": "MCP-1 level", "setting": "[1]", "result": "inhibition"}, {"measurement": "MCP-1 level", "setting": "[5]", "result": "inhibition"}, {"measurement": "MCP-1 level", "setting": "[4]", "result": "inhibition"}]}
